{
  "source": "patent US20190336537A1",
  "about": "“GENERATING ATRIAL AND VENTRICULAR CARDIOMYOCYTE LINEAGES FROM HUMAN PLURIPOTENT STEM CELLS” (UNIVERSITY HEALTH NETWORK, priority 2016, published 2019)",
  "assay_type_in_all_cases": "cell-based, human",
  "key": {"[1]": {"tested_on": "HES3 NKX2-5:GFP hESC-derived mesoderm", "assay": "Specification of mesoderm populations to an atrial fate by ROH or RA (day 20 flow cytometry and qRT-PCR)", "details": "day 4, 5B/4A induced"}, "[2]": {"tested_on": "HES3 NKX2-5:GFP reporter hESC line derived cardiomyocytes", "assay": "qRT-PCR analysis of atrial and ventricular gene expression in day 20 hPSC-derived cardiomyocytes", "description": "To determine if retinoic acid signaling can specify an atrial fate in hPSC-derived cardiogenic populations generated with our embryoid-body (EB)-based protocol, all trans retinoic acid (RA) was added to the differentiation cultures at 4 different time points that represent the following developmental stages: mesoderm induction (day 3), cardiovascular specification (day 5), cardiac progenitor development (day 7) and emergence of contracting cardiomyocytes (day 9) (Kattman et al., 2011) (FIG. 1A). The HES3 NKX2-5: GFP reporter hESC line was used for these experiments to allow us to monitor and quantify cardiovascular development and to isolate GFP+ cardiomyocytes. At day 20 of culture, GFP+SIRPA+CD90− cardiomyocytes were isolated from the differentiated populations and analyzed by RTqPCR for expression of genes indicative of atrial and ventricular development. (FIGS. 1B-D and 8B-E).\n(§1) For cardiac differentiation, we used a modified version of our embryoid body (EB)-based protocol (Kattman et al., 2011). hPSC populations at 80%-90% confluence were dissociated into single cells (TrypLE, ThermoFisher) and re-aggregated to form EBs in StemPro-34 media (ThermoFisher) containing penicillin/streptomycin (1%, ThermoFisher), L-glutamine (2 mM, ThermoFisher), trans-ferrin (150 μg/ml, ROCHE), ascorbic acid (50 μg/ml, Sigma), and monothioglycerol (50 μg/ml, Sigma), ROCK inhibitor Y-27632 (10 μM, TOCRIS) and rhBMP4 (1 ng/ml, R&D) for 18 h on an orbital shaker. At day 1, the EBs were transferred to mesoderm induction media consisting of StemPro-34 with above supplements (-ROCK inhibitor Y-27632) and rhBMP4, rhActivinA (R&D) and rhbFGF (5 ng/ml, R&D) at the indicated concentrations. At day 3, the EBs were harvested, washed with IMDM and transferred to cardiac mesoderm specification media consisting of StemPro-34, the Wnt inhibitor IWP2 (1 μM, TOCRIS) and rhVEGF (10 ng/mL, R&D). At day 5, the EBs were transferred to Stem Pro-34 with rhVEGF (5 ng/ml) for another 7 days and then to Stem Pro-34 media without additional cytokines for further 8 days. At day 20, HES3-NKX2-5gfp/w-derived cardiomyocytes were analyzed and isolated based on the expression of NKX2-5:GFP and SIRPa and a lack of CD90. Cardiomyocytes generated from non-transgenic hPSC lines were analyzed and isolated as SIRPa+CD90− populations. Media was changed every 3 days. Cultures were incubated in a low oxygen environment (5% CO2, 5% O2, 90% N2) for first 12 days and a normoxic environment (5% CO2) for the following 8 days in total of 20 days. The EBs were cultured in ultra-low attachment 6-well dishes (Corning) throughout the differentiation for maintaining suspension cultures.\nTotal RNA from hPSC-derived populations was isolated using RNAqueous-micro Kit including RNase-free DNase treatment (Ambion). RNA from dissected ventricular and atrial tissue of human fetal hearts was isolated using the TRIzol method (ThermoFisher) and treated with DNase (Ambion). Between 100 ng and […] of isolated RNA was reverse transcribed into cDNA using oligo (dT) primers and random hexamers and Superscript III Reverse Transcriptase (ThermoFisher). QRT-PCR was performed on an EP Real-Plex MasterCycler (Eppendorf) using QuantiFast SYBR Green PCR kit (QIAGEN). All experiments were prepared in duplicates and included a 10-fold dilution series of sonicated human genomic DNA standards ranging from 25 ng/ml to 2.5 μg/ml for evaluating the efficiency of PCR reaction and the copy number of each gene relative to the house keeping gene TBP. […]"}, "[3]": {"tested_on": "HES3 NKX2-5:GFP hESC-derived mesoderm", "assay": "Specification of mesoderm populations to an atrial fate by ROH or RA (day 20 flow cytometry and qRT-PCR)", "description": "To determine if the ALDH^+ cells can synthesize RA, the ALDH^+PDGFRalpha^+ and ALDH^− PDGFRalpha^+ fractions were isolated from the day 4 3B/2A-induced population, and the cells were cultured as aggregates in retinol (ROH), RA, or DMSO (control) for 24 hr (FIGS. 3A and 3B). ALDH1A2 expression segregated to the ALDH^+ fraction, confirming the validity of aldefluor-based sorting strategy for isolating RALDH2-expressing cells (FIG. 3C).\nas §1\nFollowing optimization, either ATRA (0.5 μM, Sigma) or retinol (2 μM, Sigma) was included in the cardiac mesoderm specification media from days 3-5 for the generation of atrial cardiomyocytes.\nDay 2-6 EBs were dissociated with TrypLE for 2-4 min at room temperature (RT). Day 20 EBs were dissociated by incubation in Collagenase type 2 (0.5 mg/ml, Worthington) in HANKs buffer overnight at RT followed by TrypLE treatment as described above. The following antibodies were used for staining: anti-PDGFRa-PE (R&D Systems, 3:50), anti-CD235a-APC (BD PharMingen, 1:100), antiSIRPa-PeCy7 (Biolegend, 1:1000), anti-CD90-APC (BD PharMingen, 1:1000), anticardiac isoform of CTNT (ThermoFisher Scientific, 1:2000), or anti-myosin light chain 2 (Abcam, 1:1000). For unconjugated primary antibodies, the following secondary antibodies were used for detection: goat anti-mouse IgG-APC (BD Pharmigen, 1:250), or donkey anti-rabbit IgG-PE (Jackson ImmunoResearch, 1:250). Detailed antibody information is described in Table 2.\nThe Aldefluor™ assay (STEMCELL Technologies) was performed according to the instruction provided by the manufacturer. Briefly, day 2-6 EBs were dissociated as described above. […] Stained cells were analyzed as described above. […]"}, "[4]": {"details": "RA added at days 3 and 5, day 20"}, "[5]": {"details": "day 3 RA-treated mesoderm versus non-treated"}},
  "data": [
    {"smiles": "CC1=C(/C=C/C(C)=C/C=C/C(C)=C/C(=O)O)C(C)(C)CCC1", "note": "[RA, all trans retinoic acid]", "values": [
      {"measurement": "atrial specification (MLC2V+, IRX4, NPPA, KCNJ3, NR2F2)", "setting": "[1]; CD235a+ALDH− fraction", "result": "responded to RA"},
      {"measurement": "atrial specification (MLC2V+, IRX4, NPPA, KCNJ3, NR2F2)", "setting": "[1]; CD235a−ALDH+ fraction", "result": "responded to RA"},
      {"measurement": "expression of atrial ion channel gene KCNJ3", "setting": "[2]; [4]", "result": "upregulation"},
      {"measurement": "expression of ventricular-specific gene MYL2", "setting": "[2]; [4]", "result": "significant reduction"},
      {"measurement": "expression of pan-cardiomyocyte marker CTNT", "setting": "[2]; RA added at different time points, 10B/6A induced, day 20", "result": "None of the RA treatments significantly altered"},
      {"measurement": "expression of atrial markers NR2F2, TBX5, NPPA, MYL7, CACNA1D, KCNA5, GJA5", "setting": "[2]; [5]", "result": "reverse pattern"},
      {"measurement": "expression of ventricular markers IRX4 and MYH7", "setting": "[2]; [5]", "result": "lower levels"},
      {"measurement": "atrial specification (MLC2V+, IRX4, KCNJ3, NR2F2)", "setting": "[3]; 5B/12A-induced EBs, treated days 3-5", "result": "able to induce an atrial-like cardiomyocyte phenotype"},
      {"measurement": "atrial specification (MLC2V+ frequency, IRX4, KCNJ3)", "setting": "[3]; ALDH+PDGFRalpha+ fraction, day 4, 3B/2A induced, 24 hr treatment", "result": "similar"}
    ]}
  ]
}
